These are literature values, as cited in publication PMC7377474, “Preclinical characterization of CPL302-253, a selective inhibitor of PI3Kδ, as the candidate for the inhalatory treatment and prevention of Asthma” (PLoS ONE, 2020).

The target in the data set is T1, hERG (Homo sapiens, UniProt Q12809).
T1 construct: purchased DiscoverX (Eurofins) SafetyScan44
The conditions noted are these: available preclinical data; cited from earlier work.

T1 sequence (Q12809 whole entry): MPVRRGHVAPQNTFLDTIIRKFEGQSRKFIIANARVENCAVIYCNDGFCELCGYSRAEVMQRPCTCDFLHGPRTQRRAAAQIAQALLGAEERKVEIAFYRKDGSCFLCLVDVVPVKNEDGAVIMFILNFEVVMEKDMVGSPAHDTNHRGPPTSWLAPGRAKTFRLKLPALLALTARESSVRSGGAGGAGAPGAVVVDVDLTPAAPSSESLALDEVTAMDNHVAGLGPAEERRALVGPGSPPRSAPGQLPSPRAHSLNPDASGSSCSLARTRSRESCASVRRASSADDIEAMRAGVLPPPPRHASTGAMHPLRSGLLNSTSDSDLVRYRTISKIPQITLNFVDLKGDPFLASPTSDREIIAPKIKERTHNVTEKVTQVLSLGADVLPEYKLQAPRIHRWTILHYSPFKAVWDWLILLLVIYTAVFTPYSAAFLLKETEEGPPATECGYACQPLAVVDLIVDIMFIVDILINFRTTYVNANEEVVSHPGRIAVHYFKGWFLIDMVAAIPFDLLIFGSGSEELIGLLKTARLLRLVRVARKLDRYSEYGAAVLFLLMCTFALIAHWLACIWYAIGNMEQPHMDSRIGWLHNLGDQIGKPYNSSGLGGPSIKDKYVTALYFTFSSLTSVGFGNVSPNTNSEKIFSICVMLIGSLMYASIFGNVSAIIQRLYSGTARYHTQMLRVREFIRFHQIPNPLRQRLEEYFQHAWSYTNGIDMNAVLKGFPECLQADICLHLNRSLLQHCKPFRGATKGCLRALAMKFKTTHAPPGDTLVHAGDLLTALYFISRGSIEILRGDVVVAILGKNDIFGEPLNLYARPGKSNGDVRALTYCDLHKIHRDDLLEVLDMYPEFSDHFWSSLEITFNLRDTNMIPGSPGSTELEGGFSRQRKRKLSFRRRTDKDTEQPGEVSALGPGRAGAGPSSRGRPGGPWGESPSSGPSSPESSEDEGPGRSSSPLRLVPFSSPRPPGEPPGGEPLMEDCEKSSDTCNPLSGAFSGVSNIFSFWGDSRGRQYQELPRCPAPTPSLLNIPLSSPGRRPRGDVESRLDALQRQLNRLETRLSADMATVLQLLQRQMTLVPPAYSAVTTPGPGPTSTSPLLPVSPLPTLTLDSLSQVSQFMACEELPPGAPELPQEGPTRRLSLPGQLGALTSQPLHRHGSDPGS

With `CC(C)N1CCN(Cc2cnc(-c3cc(-c4cccc5[nH]ccc45)cc4[nH]ncc34)o2)CC1` [Nemiralisib], the “activity towards hERG” value was “has activity towards hERG”.
